Results reported in ChEMBL document CHEMBL4627403, “Development of Selective Steroid Inhibitors for the Glucose-6-phosphate Dehydrogenase from Trypanosoma cruzi” (ACS Med Chem Lett, 2020).
Activity calls are given as the source filed them. No cut-off for these calls is given here.

Experiments:
[1] = Inhibition of recombinant Trypanosoma cruzi G6PDH expressed in Escherichia coli by fluorescence assay
[2] = target: T1, Glucose-6-phosphate 1-dehydrogenase (Homo sapiens, UniProt P11413); assay: Inhibition of recombinant human G6PDH expressed in Escherichia coli by fluorescence assay
T1 sequence (P11413 whole entry): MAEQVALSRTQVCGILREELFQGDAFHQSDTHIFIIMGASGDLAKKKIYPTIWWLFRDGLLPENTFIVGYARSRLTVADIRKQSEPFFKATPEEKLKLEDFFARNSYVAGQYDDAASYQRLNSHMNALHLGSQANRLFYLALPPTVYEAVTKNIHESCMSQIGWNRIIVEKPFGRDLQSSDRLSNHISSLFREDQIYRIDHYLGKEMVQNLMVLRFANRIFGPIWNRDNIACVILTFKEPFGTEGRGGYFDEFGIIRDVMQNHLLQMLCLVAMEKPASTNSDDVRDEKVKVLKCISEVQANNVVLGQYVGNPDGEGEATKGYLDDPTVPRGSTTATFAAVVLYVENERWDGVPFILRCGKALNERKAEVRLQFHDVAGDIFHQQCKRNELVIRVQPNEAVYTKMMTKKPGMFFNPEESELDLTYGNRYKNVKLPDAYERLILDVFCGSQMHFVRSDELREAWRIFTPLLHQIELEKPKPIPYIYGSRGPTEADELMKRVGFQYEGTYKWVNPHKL

Trypanosoma cruzi [3] = assay: Antitrypanosomal activity against Trypanosoma cruzi Y amastigotes infected in rat H9C2 cells assessed as reduction in parasite infection at 20 uM after 72 hrs by Hoechst 33342 staining based fluorescence microscopy; assay type: functional, organism-based
H9c2 [4] = assay: Cytotoxicity against rat H9c2 cells at 20 uM after 72 hrs by Hoechst 33342 staining based fluorescence microscopy; assay type: cell-based; settings: h9c2, 72 h
Trypanosoma cruzi [5] = assay: Antitrypanosomal activity against Trypanosoma cruzi Y amastigotes infected in rat H9C2 cells after 72 hrs by Hoechst 33342 staining based fluorescence microscopy; assay type: functional, organism-based; settings: H9c2, 72 h
H9c2 [6] = assay: Cytotoxicity against rat H9c2 cells after 72 hrs by Hoechst 33342 staining based fluorescence microscopy; assay type: cell-based; settings: H9c2, 72 h
[7] = Selectivity index, ratio of EC50 for cytotoxicity against rat H9C2 cells to EC50 for antitrypanosomal activity against Trypanosoma cruzi Y amastigotes infected in rat H9C2 cells; assay type: toxicity, cell-based; settings: read-out: Ratio EC50
Trypanosoma cruzi [8] = assay: Antitrypanosomal activity against Trypanosoma cruzi Y amastigotes infected in rat H9C2 rat cells assessed as reduction in number of infected cells at 10 uM after 72 hrs by Hoechst 33342 staining based fluorescence microscopy; assay type: functional, organism-based
[9] = Selectivity index, ratio of IC50 for human G6PDH to IC50 for Trypanosoma cruzi G6PDH
[10] = target: T1, Glucose-6-phosphate 1-dehydrogenase; assay: Inhibition of recombinant human G6PDH expressed in Escherichia coli at 80 uM by fluorescence assay

Row | SMILES | IC50 [1] [µM] | Activity (Trypanosoma cruzi [3]) | Activity (H9c2 [4]) | EC50 (H9c2 [6]) [µM] | also measured
1 | C[C@]12CC[C@H](OC(=O)CCN3CCOCC3)C[C@@H]1CC[C@@H]1[C@@H]2CC[C@]2(C)C(=O)CC[C@@H]12 | 10 | – | – | – | –
2 | C[C@]12CC[C@H](OCCS(=O)(=O)N3CCOCC3)C[C@@H]1CC[C@@H]1[C@@H]2CC[C@]2(C)C(=O)CC[C@@H]12 | 20 | – | – | – | –
3 | C[C@]12CC[C@H](OC[C@H](O)CN3CCOCC3)C[C@@H]1CC[C@@H]1[C@@H]2CC[C@]2(C)C(=O)CC[C@@H]12 | – | – | – | – | IC50 [2]: > 40 µM
4 | CN1CCN(CCS(=O)(=O)O[C@H]2CC[C@@]3(C)[C@@H](CC[C@@H]4[C@@H]3CC[C@]3(C)C(=O)CC[C@@H]43)C2)CC1 | 5 | inactive | Non-Toxic | – | –
5 | CC(C)CO[C@H]1CC[C@@]2(C)[C@@H](CC[C@@H]3[C@@H]2CC[C@]2(C)C(=O)[C@H](Br)C[C@@H]32)C1 | – | Active | Toxic | 12.3 | EC50 (Trypanosoma cruzi [5]): 4.2 µM; selectivity ratio [7]: 2.9; Activity (Trypanosoma cruzi [8]): Active
6 | CN1CCN(CCC(=O)O[C@H]2CC[C@@]3(C)[C@@H](CC[C@@H]4[C@@H]3CC[C@]3(C)C(=O)CC[C@@H]43)C2)CC1 | 10 | – | – | – | –
7 | CC(C)C(=O)O[C@H]1CC[C@@]2(C)[C@@H](CC[C@@H]3[C@@H]2CC[C@]2(C)C(=O)CC[C@@H]32)C1 | > 3 | inactive | Non-Toxic | – | –
8 | CC(=O)O[C@H]1CC[C@@]2(C)[C@@H](CC[C@@H]3[C@@H]2CC[C@]2(C)C(=O)[C@H](Br)C[C@@H]32)C1 | 0.15 to 0.38 | Active | Toxic | 14.7 | EC50 (Trypanosoma cruzi [5]): 8.5 µM; selectivity ratio [7]: 1.7; Ratio IC50 [9]: 160
9 | CO[C@H]1CC[C@@]2(C)[C@@H](CC[C@@H]3[C@@H]2CC[C@]2(C)C(=O)CC[C@@H]32)C1 | – | inactive | Non-Toxic | – | –
10 | CN1CCN(C[C@H](O)CO[C@H]2CC[C@@]3(C)[C@@H](CC[C@@H]4[C@@H]3CC[C@]3(C)C(=O)CC[C@@H]43)C2)CC1 | – | – | – | – | IC50 [2]: > 40 µM
11 | C[C@]12CC[C@H](OCCS(=O)(=O)N3CCOCC3)C[C@@H]1CC[C@@H]1[C@@H]2CC[C@]2(C)C(=O)[C@H](Br)C[C@@H]12 | – | Active | Toxic | 8.5 | EC50 (Trypanosoma cruzi [5]): 2.4 µM; selectivity ratio [7]: 3.5; Activity (Trypanosoma cruzi [8]): Active; Ratio IC50 [9]: 5 to 10
12 | C[C@]12CC[C@H](OC[C@@H](O)CN3CCOCC3)C[C@@H]1CC[C@@H]1[C@@H]2CC[C@]2(C)C(=O)CC[C@@H]12 | – | – | – | – | IC50 [2]: > 40 µM
13 | C[C@]12CC[C@H](O)C[C@@H]1CC[C@@H]1[C@@H]2CC[C@]2(C)C(=O)CC[C@@H]12 [EPIANDROSTERONE] | – | inactive | Non-Toxic | – | –
14 | C=CCC(=O)O[C@H]1CC[C@@]2(C)[C@@H](CC[C@@H]3[C@@H]2CC[C@]2(C)C(=O)CC[C@@H]32)C1 | > 3 | inactive | Non-Toxic | – | –
15 | C[C@]12CC[C@H](OCC(=O)N3CCOCC3)C[C@@H]1CC[C@@H]1[C@@H]2CC[C@]2(C)C(=O)[C@H](Br)C[C@@H]12 | – | Active | Toxic | 5.6 | EC50 (Trypanosoma cruzi [5]): 3.2 µM; selectivity ratio [7]: 1.8; Ratio IC50 [9]: 5 to 10
16 | C[C@]12CC[C@H](O)C[C@@H]1CC[C@@H]1[C@@H]2CC[C@]2(C)C(=O)[C@H](Br)C[C@@H]12 [16.ALPHA.-BROMOEPIANDROSTERONE] | – | Active | Toxic | 13 | EC50 (Trypanosoma cruzi [5]): 6.4 µM; selectivity ratio [7]: 2; Ratio IC50 [9]: 2
17 | C[C@]12CC[C@H](OS(C)(=O)=O)C[C@@H]1CC[C@@H]1[C@@H]2CC[C@]2(C)C(=O)CC[C@@H]12 | – | inactive | Non-Toxic | – | Ratio IC50 [9]: 2
18 | CN1CCN(C[C@@H](O)CO[C@H]2CC[C@@]3(C)[C@@H](CC[C@@H]4[C@@H]3CC[C@]3(C)C(=O)CC[C@@H]43)C2)CC1 | – | – | – | – | IC50 [2]: > 40 µM
19 | O=C(Cn1ccnc1[N+](=O)[O-])NCc1ccccc1 [BENZNIDAZOLE] | – | – | – | > 40 | Activity (Trypanosoma cruzi [8]): Active
20 | C[C@]12CC[C@H](OC(=O)CN3CCOCC3)C[C@@H]1CC[C@@H]1[C@@H]2CC[C@]2(C)C(=O)CC[C@@H]12 | 10 | – | – | – | –
21 | C[C@]12CC[C@H](OS(=O)(=O)CCN3CCOCC3)C[C@@H]1CC[C@@H]1[C@@H]2CC[C@]2(C)C(=O)CC[C@@H]12 | 5 | inactive | Non-Toxic | – | –
22 | C[C@]12CCCC[C@@H]1CC[C@@H]1[C@@H]2CC[C@]2(C)C(=O)[C@H](Br)C[C@@H]12 | – | Active | Toxic | 8.4 | EC50 (Trypanosoma cruzi [5]): 3.5 µM; selectivity ratio [7]: 2.4
23 | CC(=O)O[C@H]1CC[C@@]2(C)[C@@H](CC[C@@H]3[C@@H]2CC[C@]2(C)C(=O)CC[C@@H]32)C1 | > 3 | inactive | Non-Toxic | – | –
24 | CN1CCN(CC(=O)O[C@H]2CC[C@@]3(C)[C@@H](CC[C@@H]4[C@@H]3CC[C@]3(C)C(=O)CC[C@@H]43)C2)CC1 | 10 | – | – | – | –
25 | C[C@]12CC[C@H](OS(C)(=O)=O)C[C@@H]1CC[C@@H]1[C@@H]2CC[C@]2(C)C(=O)[C@H](Br)C[C@@H]12 | – | Active | Toxic | 7.5 | EC50 (Trypanosoma cruzi [5]): 2.4 µM; selectivity ratio [7]: 3.1; Activity (Trypanosoma cruzi [8]): Active; Ratio IC50 [9]: 6
26 | CC(C)C(=O)O[C@H]1CC[C@@]2(C)[C@@H](CC[C@@H]3[C@@H]2CC[C@]2(C)C(=O)[C@H](Br)C[C@@H]32)C1 | 0.15 to 0.38 | – | – | – | Ratio IC50 [9]: > 400; inhibition (INH) [10]: Not Active
27 | C=CCC(=O)O[C@H]1CC[C@@]2(C)[C@@H](CC[C@@H]3[C@@H]2CC[C@]2(C)C(=O)[C@H](Br)C[C@@H]32)C1 | 0.15 to 0.38 | Active | Toxic | 54 | EC50 (Trypanosoma cruzi [5]): 16.7 µM; selectivity ratio [7]: 3.2
